# Assays:
# [1] = cited from earlier work
# [2] = system: patients with unresectable advanced or metastatic renal cell carcinoma (RCC); assay: Same Phase 2 trial: laboratory abnormalities, Grade 3-4; assay type: in vivo, human; conditions: combo (head prints 10 mg+5 mg), LENVIMA 24 mg, everolimus 10 mg
# Text: Table 4 provides a summary of laboratory abnormalities observed in the patients in the RCC trial described in Example 1.
# [3] = system: patients with unresectable advanced or metastatic renal cell carcinoma (RCC); assay: Phase 2 trial in RCC after one prior VEGF-targeted treatment: efficacy (PFS, OS, ORR), investigator assessment, RECIST 1.1; LENVIMA 18 mg+everolimus 5 mg vs LENVIMA 24 mg vs everolimus 10 mg; conditions: combo 18 mg+5 mg
# Method: A multicenter, randomized, open-label, trial was conducted to determine the safety and efficacy of lenvatinib administered alone or in combination with everolimus in subjects with unresectable advanced or metastatic renal cell carcinoma (RCC). The trial consisted of a Phase 1b dose finding and a Phase 2 portion. The Phase 2 portion enrolled a total of 153 patients with unresectable advanced or metastatic RCC following one prior VEGF-targeted treatment. Patients were required, inter alia, to have histological confirmation of predominant clear cell RCC, radiographic evidence of disease progression according to Response Evaluation Criteria in Solid Tumors Version 1.1 (RECIST), one prior VEGF-targeted therapy, and Eastern Cooperative Oncology Group (ECOG) Performance Status of 0 or 1.
# Patients were randomly allocated to one of 3 arms: (i) LENVIMA® (mesylate salt of lenvatinib) 18 mg+everolimus 5 mg, (ii) LENVIMA® 24 mg, or (iii) everolimus 10 mg, using a 1:1:1 ratio. Patients were stratified by hemoglobin level (≤13 g/dL vs. >13 g/dL for males and ≤11.5 g/dL vs >11.5 g/dL for females) and corrected serum calcium (≥10 mg/dL vs. <10 mg/dL).
# The primary efficacy outcome measure, based on investigator assessed tumor response, was progression-free survival (PFS) of the LENVIMA® plus everolimus arm vs. the everolimus arm and of the LENVIMA® arm vs. the everolimus arm. Other efficacy outcome measures included investigator-assessed overall survival (OS) and objective response rate (ORR).
# Tumor assessments were evaluated according to RECIST.
# [4] = system: patients with unresectable advanced or metastatic renal cell carcinoma (RCC); assay: Same Phase 2 trial: adverse reactions (CTCAE grades), once daily dosing; conditions: LENVIMA 24 mg;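 note: adverse events are any unwanted sign, symptom, abnormal lab finding or disease occurring in time with treatment, whether or not drug-related, and CTCAE grade expresses their severity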
# Method: The CTCAE provides a grading (severity) scale for each adverse event term. […] The CTCAE grade refers to the severity of the AE.
# The safety data described below are derived from the trial described in Example 1, which randomized (1:1:1) patients with unresectable advanced or metastatic renal cell carcinoma (RCC) to LENVIMA® 18 mg+everolimus 5 mg (n=51), LENVIMA® 24 mg (n=52), or everolimus 10 mg (n=50) once daily.
# [5] = everolimus 10 mg, cutoff Jul. 31, 2015
# [6] = everolimus 10 mg, cutoff Jun. 13, 2014
# [7] = combo 18 mg+5 mg, everolimus 10 mg
compound,measurement,setting,value
"COc1cc2nccc(Oc3ccc(NC(=O)NC4CC4)c(Cl)c3)c2cc1C(N)=O [LENVIMA ®, 4-[3-chloro-4-(N′-cyclopropylureido)phenoxy]-7-methoxyquinoline-6-carboxamide methanesulfonate]",solubility in ethanol (dehydrated),[1]; ethanol (dehydrated),practically insoluble
same,solubility in water,[1]; water,slightly soluble
same,"Alkaline phosphatase increased, Grades 3-4",[2],0%
same,"Aspartate aminotransferase (AST) increased, Grades 3-4",[2],4%
same,"Hemoglobin decreased, Grades 3-4",[2],4%
same,"Hyperglycemia, Grades 3-4",[2],8%
same,"Hyperkalemia, Grades 3-4",[2],2%
same,"Hypokalemia, Grades 3-4",[2],8%
same,"Hyponatremia, Grades 3-4",[2],6%
same,"Hypophosphatemia, Grades 3-4",[2],4%
same,"Lipase increased, Grades 3-4",[2],10%
same,"Lymphocyte count decreased, Grades 3-4",[2],4%
same,"Platelet count decreased, Grades 3-4",[2],2%
same,"Hypocalcemia, Grades 3-4","[2]; listed as LENVIMA®, methanesulfonate",no patients
same,"Duration of response, months, median (95% CI)",[3]; everolimus 10 mg,"7.5 (3.8, NE) months"
same,Number of complete responses (%),[3]; everolimus 10 mg,0 n (%)
same,Number of partial responses (%),[3]; everolimus 10 mg,14 (27) n (%)
same,Number of progressive disease (%),[3]; everolimus 10 mg,3 (6) n (%)
same,Number of stable disease (%),[3]; everolimus 10 mg,27 (52) n (%)
same,"Median OS in months (95% CI), updated analysis",[3]; [5],"19.1 (13.6, 26.2) months"
same,"Overall Survival (updated analysis): Number of deaths, n (%)",[3]; [5],34 (65) n (%)
same,Median OS in months (95% CI),[3]; [6],"18.4 (13.3, NE) months"
same,Median PFS in months (95% CI),[3]; [6],"7.4 (5.6, 10.2) months"
same,Overall Survival: Number of deaths (%),[3]; [6],26 (50) n (%)
same,PFS compared with the everolimus arm (in words),[3]; vs everolimus 10 mg,improvement
same,"arterial thromboembolic events, Grade 3 or greater",[4]; everolimus 10 mg,8%
same,"QT/QTc interval prolongation, Grade 3 or greater events",[4]; combo 18 mg+5 mg,No Grade 3 or greater events
same,fatal hemorrhage cases,[4]; combo 18 mg+5 mg,one case of fatal intracranial hemorrhage
same,"Arthralgia/myalgia, All Grades",[4]; [7],56%
same,"Arthralgia/myalgia, Grades 3-4",[4]; [7],4%
same,"Confusional state, All Grades",[4]; [7],4%
same,"Confusional state, Grades 3-4",[4]; [7],2%
same,"Cough, All Grades",[4]; [7],17%
same,"Cough, Grades 3-4",[4]; [7],2%
same,"Decreased appetite, All Grades",[4]; [7],58%
same,"Decreased appetite, Grades 3-4",[4]; [7],4%
same,"Decreased weight, All Grades",[4]; [7],50%
same,"Decreased weight, Grades 3-4",[4]; [7],6%
same,"Dehydration, All Grades",[4]; [7],2%
same,"Dehydration, Grades 3-4",[4]; [7],0%
same,"Dysphonia, All Grades",[4]; [7],37%
same,"Dysphonia, Grades 3-4",[4]; [7],0%
same,"Dyspnea, All Grades",[4]; [7],25%
same,"Dyspnea, Grades 3-4",[4]; [7],2%
same,"Epistaxis, All Grades",[4]; [7],8%
same,"Epistaxis, Grades 3-4",[4]; [7],0%
same,"Fatigue, All Grades",[4]; [7],52%
same,"Headache, Grades 3-4",[4]; [7],6%
same,"Insomnia, All Grades",[4]; [7],15%
same,"Insomnia, Grades 3-4",[4]; [7],0%
same,"Musculoskeletal chest pain, All Grades",[4]; [7],15%
same,"Musculoskeletal chest pain, Grades 3-4",[4]; [7],4%
same,"Pruritus, All Grades",[4]; [7],6%
same,"Pruritus, Grades 3-4",[4]; [7],0%
same,"Pyrexia, All Grades",[4]; [7],10%
same,"QT/QTc interval prolongation, patients",[4]; [7],6%
same,"Rash, All Grades",[4]; [7],15%
same,"Rash, Grades 3-4",[4]; [7],0%
same,"Renal failure events, All Grades",[4]; [7],10%
same,"Renal failure events, Grades 3-4",[4]; [7],6%
same,"Vomiting, Grades 3-4",[4]; [7],4%

# From patent US20200375975A1, “Treatment of Renal Cell Carcinoma with Lenvatinib and Everolimus” (Eisai R&D Management Co., Ltd., priority 2016, published 2020)
